Reference: ChEMBL document CHEMBL4813910, “Curse or Cure? A Perspective on the Developability of Aldehydes as Active Pharmaceutical Ingredients” (J Med Chem, 2020)
Values belong to the compound of their own block, whether it stands above or below them.

Tests used:
[1] = Cmax in human plasma at 37 mg/kg, po by HPLC method; type: ADME, organism-based; design: route oral, dose 37 mg/kg
[2] = Tmax in human plasma at 37 mg/kg, po by HPLC method; type: ADME, organism-based
[3] = Ratio of drug level in human erythrocytes to plasma at 20 mg/kg, iv measured over 1 hr; type: ADME, organism-based
[4] = Cmax in human erythrocytes at 37 mg/kg, po; type: ADME, organism-based, Erythrocyte; design: route oral, dose 37 mg/kg
[5] = Half life in human plasma at 37 mg/kg, po by HPLC method; type: ADME, organism-based
[6] = Half life in human erythrocytes at 37 mg/kg, po by HPLC method; type: ADME, organism-based, Erythrocyte
[7] = AUC (0 to 24 hrs) in human plasma at 37 mg/kg, po by HPLC method; type: ADME, organism-based; design: time < 24 hr, route oral, dose 37 mg/kg; details: in vivo
[8] = AUC (0 to 24 hrs) in human erythrocytes at 37 mg/kg, po by HPLC method; type: ADME, organism-based, Erythrocyte; design: time < 24 hr, route oral, dose 37 mg/kg
[9] = Tmax in human erythrocytes at 37 mg/kg, po by HPLC method; type: ADME, organism-based, Erythrocyte
[10] = Volume of distribution in human at 20 mg/kg, iv measured over 1 hr; type: ADME, organism-based; details: in vivo
[11] = AUC (0 to 24 hrs) in human at 20 mg/kg, iv measured over 1 hr; type: ADME, organism-based; design: route intravenous, time 1 hrs, dose 20 mg/kg; details: in vivo
[12] = Elimination half life in human at 20 mg/kg, iv measured over 1 hr; type: ADME, organism-based; details: in vivo, read-out: beta t1/2 (converted)
[13] = Tmax in human erythrocytes at 2.8 g, po by liquid chromatography-tandem mass spectrometry method; type: ADME, organism-based, Erythrocyte
[14] = Cmax in human plasma at 2.8 g, po by liquid chromatography-tandem mass spectrometry method; type: ADME, organism-based; design: route oral, dose 2.8 g
[15] = Induction of hemoglobin modification in human at 900 mg/day
[16] = Tmax in human plasma at 2.8 g, po by liquid chromatography-tandem mass spectrometry method; type: ADME, organism-based
[17] = Clearance in human at 2.8 g, po by liquid chromatography-tandem mass spectrometry method; type: ADME, organism-based; details: in vivo
[18] = AUC (0 to 24 hrs) in human plasma at 2.8 g, po by liquid chromatography-tandem mass spectrometry method; type: ADME, organism-based; design: time < 24 hr, route oral, dose 2.8 g
[19] = Central volume of distribution in human at 2.8 g, po; type: ADME; details: in vivo
[20] = Cmax in human erythrocytes at 2.8 g, po by liquid chromatography-tandem mass spectrometry method; type: ADME, organism-based, Erythrocyte; design: route oral, dose 2.8 g
[21] = Ratio of drug level in human erythrocytes to plasma at 2.8 g, po; type: ADME
[22] = Renal clearance in human at 0.5 g, iv; type: ADME; details: in vivo
[23] = Tmax in human at 2 g, po; type: ADME; details: in vivo
[24] = Half life in human at 0.5 g, iv; type: ADME; details: in vivo
[25] = Drug excretion in human urine at 2 g, po measured within 24 hrs; type: ADME, organism-based; details: in vivo
[26] = Cmax in human at 2 g, po; type: ADME; design: route oral, dose 2 g; details: in vivo
[27] = Protein binding in human plasma at 2 g, po; type: ADME, cell-free
[28] = Volume of distribution at steady state in human at 0.5 g, iv; type: ADME; details: in vivo
[29] = Cmax in human serum at 2 g, po; type: ADME, cell-free; design: route oral, dose 2 g
[30] = Half life in human at 2 g, po; type: ADME; details: in vivo
[31] = Non-renal clearance in human at 0.5 g, iv; type: ADME; details: in vivo
[32] = Tmax in human serum at 2 g, po; type: ADME
[33] = Cmax in human at 0.5 g, iv; type: ADME; design: route intravenous, dose 0.5 g; details: in vivo
[34] = Total clearance in human at 0.5 g, iv; type: ADME; details: in vivo
[35] = AUC (0 to infinity) in human serum at 2 g, po; type: ADME, cell-free; design: route oral, time infinity, dose 2 g
[36] = Drug excretion in human urine at 0.5 g, iv measured within 24 hrs; type: ADME, organism-based; details: in vivo
[37] = Oral bioavailability in human at 2 g; type: ADME, organism-based; details: in vivo

Cmax [1]: 271 µM | Tmax [2]: 7.5 h | Kp at 1 h [3]: < 11.2 | Cmax [4]: 2460 µM | half-life [5]: 223 h | half-life [6]: 120 h | AUC [7]: 62 µM·h | AUC(0-t) at 24 h [8]: 579 µM·h | Tmax [9]: 24 h
Compound: O=Cc1c(O)cccc1OCc1ccc(C(=O)O)cc1 [TUCARESOL]

Vd [10]: 0.067 L/kg | AUC [11]: 5.18 µM·h | half-life [12]: 2.2 h | Kp at 1 h [3]: 14.3
Compound: O=Cc1c(O)cccc1OCCCCC(=O)O [VELARESOL]

Tmax [13]: 17.1 h | Cmax [14]: 18.7 µM | Activity [15]: 40% | Tmax [16]: 7.1 h | CL/F [17]: 5.4 mL/h/kg | AUC(0-t) at 24 h [18]: 1280 µM·h | Vc [19]: 5.2 L/kg | Cmax [20]: 1110 µM | Kp [21]: 67
Compound: CC(C)n1nccc1-c1ncccc1COc1cccc(O)c1C=O [VOXELOTOR]

CL [22]: 144.2 mL/min | Tmax [23]: 4 h | t1/2 [24]: 5.54 h | Drug excretion [25]: 4.4% | Cmax [26]: 2 µM | PPB [27]: 48% | Vdss [28]: 5.5 L/kg | Cmax [29]: 3.7 µM | t1/2 [30]: 6.23 h | CL [31]: 887 mL/min | Tmax [32]: 3.3 h | Cmax [33]: 2.7 µM | CL [34]: 1.14 L/min | AUC [35]: 12 µM·h | Drug excretion [36]: 13.9% | F [37]: 10%
Compound: SPIRAMYCIN
